The record followed here is patent US4260745A, “3-Halo cephalosporins” (Eli Lilly and Company, priority 1979, dated 1981).

In brackets after ≈: the same amount, converted by molar mass. Where two headings read alike, the source gives them in different places.

A short description of data set [1]: Electrometric titration. In kind it is physicochemical. To be noted: 66% aqueous dmf; only or first pKa; read-out: pKa.
For data set [2], the system named is Methicillin resistant Staphylococcus. The data set is described as follows: Gradient Plate technique, MIC. In kind it is cell-based. The note with it: Clinical Isolate X400 (methicillin resistant).
For data set [3], the system named is Escherichia coli. The data set is described as follows: Gradient Plate technique, MIC. In kind it is cell-based. The note with it: read-out: Minimum Inhibitory Concentration. From the text: (§1) The following Table II lists the minimum inhibitory concentration (MIC) for 7-[2-(2-thienyl)acetamido]-3-chloro-3-cephem-4-carboxylic acid against penicillin resistant Staphylococcus both in the presence of and absence of serum. The MIC values were obtained by the Gradient Plate technique carried out essentially as described by Bryson and Szybalski, Science, 116, 45 (1952).
(§2) In Table III, below, the MIC values for the test compound of Tables I and II against representative gram-negative organisms is presented. The data were obtained by the Gradient Plate technique.
(§3) The minimum inhibitory concentrations for 7-[2-(2-thienyl)acetamido]-3-bromo-3-cephem-4-carboxylic acid against representative gram-negative bacteria is presented in Table VI. The data were obtained by the Gradient Plate Method.
(§4) Tables VII and VIII list the minimum inhibitory concentrations of the test compound effective against representative penicillin resistant Staphylococcus strains, while […] the MIC values obtained against representative gram-negative microorganisms. The data were obtained by the Gradient Plate method.

Data set [4] deals with Pseudomonas aeruginosa. The data set is described as follows: Gradient Plate technique, MIC. In kind it is cell-based. To be noted: read-out: Minimum Inhibitory Concentration.
From the text: as §1, §2, §3, §4

Data set [5] deals with Shigella sp. The data set is described as follows: Gradient Plate technique, MIC. In kind it is cell-based. The note with it: read-out: Minimum Inhibitory Concentration.
From the text: as §1, §2, §3, §4

Data set [6] has as its system Serratia marcescens. The data set is described as follows: Gradient Plate technique, MIC. The note with it: read-out: Minimum Inhibitory Concentration. Type of data set: cell-based.
From the text: as §1, §2, §3, §4

Data set [7] concerns Aerobacter aerogenes. The data set is described as follows: Gradient Plate technique, MIC. The note with it: Klebsiella aerogenes, read-out: Minimum Inhibitory Concentration. In kind it is cell-based.
From the text: as §1, §2, §3, §4

For data set [8], the system named is Salmonella heidelberg. The data set is described as follows: Gradient Plate technique, MIC. Type of data set: cell-based. To be noted: Salmonella enterica, read-out: Minimum Inhibitory Concentration.
From the text: as §1, §2, §3, §4

In data set [9] the test system is Klebsiella pneumoniae. The data set is described as follows: Gradient Plate technique, MIC. In kind it is cell-based. To be noted: read-out: Minimum Inhibitory Concentration.
From the text: as §1, §2, §3, §4

For data set [10], the system named is Penicillin Resistant Staphylococcus. The data set is described as follows: Gradient Plate technique, MIC. Type of data set: cell-based. The note with it: read-out: Minimum Inhibitory Concentration. From the text: The following Table II lists the minimum inhibitory concentration (MIC) for 7-[2-(2-thienyl)acetamido]-3-chloro-3-cephem-4-carboxylic acid against penicillin resistant Staphylococcus both in the presence of and absence of serum. The MIC values were obtained by the Gradient Plate technique carried out essentially as described by Bryson and Szybalski, Science, 116, 45 (1952). […]

The subject of data set [11] is Salmonella typhosa SA12. The data set is described as follows: standard agar dilution method, MIC. In kind it is cell-based. To be noted: Salmonella enterica, read-out: Minimum Inhibitory Concentration. From the text:
(§5) In Table IX which follows, the MIC values against a spectrum of microorganisms obtained with the test compound are presented. The test method was the standard agar dilution method.

Data set [12] has as its system Staphylococcus aureus 3074. The data set is described as follows: standard agar dilution method, MIC. Type of data set: cell-based. The note with it: read-out: Minimum Inhibitory Concentration.
From the text: as §5

Data set [13] has as its system Erwinia amylovora. The data set is described as follows: standard agar dilution method, MIC. To be noted: read-out: Minimum Inhibitory Concentration. In kind it is cell-based.
From the text: as §5
A general note: In agar dilution the substance is mixed into plates at graded concentrations.

The test system of data set [14] is Bordetella bronchiseptica 16. The data set is described as follows: standard agar dilution method, MIC. In kind it is cell-based. The note with it: read-out: Minimum Inhibitory Concentration.
From the text: as §5

In data set [15] the test system is Trichophyton mentagrophytes 27. The data set is described as follows: standard agar dilution method, MIC. Type of data set: cell-based. The note with it: read-out: Minimum Inhibitory Concentration.
From the text: as §5

For data set [16], the system named is Streptococcus faecalis X66. The data set is described as follows: standard agar dilution method, MIC. Type of data set: cell-based. The note with it: Enterococcus faecalis, read-out: Minimum Inhibitory Concentration.
From the text: as §5

Data set [17] has as its system Serratia marcescens SE3. The data set is described as follows: standard agar dilution method, MIC. Type of data set: cell-based. The note with it: read-out: Minimum Inhibitory Concentration.
From the text: as §5

For data set [18], the system named is Salmonella typhimurium. The data set is described as follows: standard agar dilution method, MIC. Type of data set: cell-based. The note with it: Salmonella enterica, read-out: Minimum Inhibitory Concentration.
From the text: as §5

Data set [19] relates to Enterobacter aerogenes EB17. The data set is described as follows: standard agar dilution method, MIC. In kind it is cell-based. To be noted: Klebsiella aerogenes, read-out: Minimum Inhibitory Concentration.
From the text: as §5

The subject of data set [20] is Candida tropicalis A17. The data set is described as follows: standard agar dilution method, MIC. In kind it is cell-based. To be noted: read-out: Minimum Inhibitory Concentration.
From the text: as §5

For data set [21], the system named is Pseudomonas solanacearcum X185. The data set is described as follows: standard agar dilution method, MIC. In kind it is cell-based. To be noted: read-out: Minimum Inhibitory Concentration.
From the text: as §5

In data set [22] the test system is Ceratocystis ulmi. The data set is described as follows: standard agar dilution method, MIC. In kind it is cell-based. The note with it: read-out: Minimum Inhibitory Concentration.
From the text: as §5

Data set [23] concerns Escherichia coli EC14. The data set is described as follows: standard agar dilution method, MIC. Type of data set: cell-based. The note with it: read-out: Minimum Inhibitory Concentration.
From the text: as §5

In data set [24] the test system is Proteus morganii PR15. The data set is described as follows: standard agar dilution method, MIC. Type of data set: cell-based. The note with it: Morganella morganii, read-out: Minimum Inhibitory Concentration.
From the text: as §5

The subject of data set [25] is Aspergillus flavus E. The data set is described as follows: standard agar dilution method, MIC. Type of data set: cell-based. To be noted: read-out: Minimum Inhibitory Concentration.
From the text: as §5

Data set [26] relates to Klebsiella pneumoniae KL14. The data set is described as follows: standard agar dilution method, MIC. To be noted: read-out: Minimum Inhibitory Concentration. Type of data set: cell-based.
From the text: as §5

Data set [27] concerns Pseudomonas aeruginosa X239. The data set is described as follows: standard agar dilution method, MIC. Type of data set: cell-based. The note with it: read-out: Minimum Inhibitory Concentration.
From the text: as §5

In data set [28] the test system is Citrobacter freundii. The data set is described as follows: standard agar dilution method, MIC. Type of data set: cell-based. To be noted: read-out: Minimum Inhibitory Concentration.
From the text: as §5

Data set [29] concerns Staphylococcus aureus 3055. The data set is described as follows: standard agar dilution method, MIC. In kind it is cell-based. To be noted: read-out: Minimum Inhibitory Concentration.
From the text: as §5

On to `O=CO[C@@H](C(=O)NC1C(=O)N2C(C(=O)O)=C(Cl)CSC12)c1ccccc1` (stereo partly drawn) [7-[O-(Formyl)-D-mandelamido]-3-chloro-3-cephem-4-carboxylic acid], for which the pKa (as a rule, the pH at which an ionisable group is half protonated) in [1] was found to be 4.5. The “Minimum Inhibitory Concentration” value in data set [2] (Serum) was greater than 20 µg/mL. Also, the MIC is greater than 20 µg/mL in data set [2] (Staphylococcus, No Serum, read-out: Minimum Inhibitory Concentration); 6.3 µg/mL (≈ 15.9 µM) in [3]; greater than 200 µg/mL in [4]; 4 µg/mL (≈ 10.1 µM) in [5]; 160 µg/mL (≈ 403 µM) in data set [6]; 0.7 µg/mL (≈ 1.76 µM) in data set [7]. In addition, the MIC is 0.6 µg/mL (≈ 1.51 µM) in [8]; 1 µg/mL (≈ 2.52 µM) in data set [9]; 8 µg/mL (≈ 20.2 µM) in [10] (Clinical Isolate V 32, No Serum); greater than 20 µg/mL in data set [10] (Clinical Isolate V 32, Serum); 5.8 µg/mL (≈ 14.6 µM) in data set [10] (Clinical Isolate V 41, No Serum); greater than 20 µg/mL in [10] (Clinical Isolate V 41, Serum). The MIC in [10] (Clinical Isolate V 84, No Serum) was 0.4 µg/mL (≈ 1.01 µM); in data set [10] (Clinical Isolate V 84, Serum), 1 µg/mL (≈ 2.52 µM); in [10] (Clinical Isolate X 1.1, No Serum), less than 0.1 µg/mL; in data set [10] (Clinical Isolate X 1.1, Serum), less than 0.1 µg/mL; in data set [11], 0.5 µg/mL (≈ 1.26 µM); in [12], 1 µg/mL (≈ 2.52 µM). Besides, the MIC in [13] was greater than 128 µg/mL; in data set [14], 64 µg/mL (≈ 161 µM); in data set [15] it was greater than 128 µg/mL; in [16] it was 64 µg/mL (≈ 161 µM); in data set [17] it was greater than 128 µg/mL; in data set [18], 1 µg/mL (≈ 2.52 µM). Further, the MIC in [19] is 128 µg/mL (≈ 323 µM); in data set [20], greater than 128 µg/mL; in data set [21], 128 µg/mL (≈ 323 µM); in data set [22], greater than 128 µg/mL; in [23], 8 µg/mL (≈ 20.2 µM); in data set [24], 4 µg/mL (≈ 10.1 µM). Besides, the MIC in data set [25] is greater than 128 µg/mL; in [26], 4 µg/mL (≈ 10.1 µM); in data set [27], 128 µg/mL (≈ 323 µM); in [28], greater than 128 µg/mL; in data set [29], greater than 0.25 µg/mL.
On to `O=C(Cc1cccs1)NC1C(=O)N2C(C(=O)OCc3ccc([N+](=O)[O-])cc3)=C(O)CS[C@H]12` (some centres unmarked) [Example 12, p-Nitrobenzyl 7-[2-(2-thienyl)acetamido]-3-hydroxy-3-cephem-4-carboxylate], for which, in data set [1], the pKa is 5.9.
